Measured values published in patent publication US12145947B2, “Pyrimidine based modulators and uses thereof” (Quanta Therapeutics, Inc., priority 2022, dated 2024).

Tests used:
[1] = molecular target: T1, GST-tagged KRAS-G12D (2-169) (Homo sapiens, UniProt P01116, G12D); assay: Nucleotide exchange assay (NEA), SOS-mediated, HTRF, KRAS G12D; format: biochemical; details: Table 4; IC50 extracted at 30 min
T1 construct: GST-tagged KRAS-G12D (2-169, Reaction Biology, MSC-11-539); purchased Reaction Biology MSC-11-539 (KRAS G12D); MSC-11-502 (SOS1cat)
T1 sequence (P01116 2-169 isoform P01116-2 G12D): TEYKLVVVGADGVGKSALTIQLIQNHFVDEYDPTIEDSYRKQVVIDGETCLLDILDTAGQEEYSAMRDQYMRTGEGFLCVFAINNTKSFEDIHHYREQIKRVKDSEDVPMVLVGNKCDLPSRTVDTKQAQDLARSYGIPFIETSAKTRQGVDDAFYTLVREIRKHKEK
Summary of the method: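 GST-KRAS-G12D (2-169, 5 nM final) with Tb-anti-GST donor was preincubated with compound 1 h at RT (pH 7.3 HEPES buffer, MgCl2, DTT), then SOScat (564-1049, 20 nM) and GTP-DY-647P1 (150 nM) were added. HTRF was read at RT; % inhibition vs DMSO/no-SOS blank, 4-parameter IC50 taken at 30 min.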

[2] = test system: AGS cells (KRAS G12D), phospho-ERK; assay: pERK In Cell Western (ICW) assay (Method B), AGS cells; format: cell-based; details: Homo sapiens, Table 4, pERK, 3 hours, read-out: ICW-AGS
Summary of the method: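 GP2D (10,000 cells/well) and AGS (5,000 cells/well) cells were treated for 3 h at 37 °C with a 10-point, ½-log dilution series (top […]). They were then fixed and immunostained for phospho-ERK. pERK signal was normalised to DRAQ5 and expressed as % of DMSO, with IC50 from a 4-parameter fit.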

CO[C@H]1CN(CC2(COc3nc(N4C[C@H]5CC[C@@H](C4)N5)c(C#N)c(N4CC5(CCc6sc(N)c(C#N)c65)C4)n3)CC2)C[C@@H]1F [Compound 81, 2-amino-1′-[5-cyano-6-[(1R,5S)-3,8-diazabicyclo[3.2.1]octan-3-yl]-2-[[1-[[(3S,4S)-3-fluoro-4-methoxy-pyrrolidin-1-yl]methyl]cyclopropyl]methoxy]pyrimidin-4-yl]spiro[5,6-dihydrocyclopenta[b]thiophene-4,3′-azetidine]-3-carbonitrile]
IC50 [1]: < 10 nM
IC50 [2]: 100 to 1000 nM

Cc1nc(-c2nn3c(c2Cl)CN(c2nc(OC[C@@]45CCCN4C[C@H](F)C5)nc(N4CC5(CCc6sc(N)c(C#N)c65)C4)c2C#N)CCC3)n(C)n1 [Compound 85, 2-amino-1′-[6-[3-chloro-2-(2,5-dimethyl-1,2,4-triazol-3-yl)-4,6,7,8-tetrahydropyrazolo[1,5-a][1,4]diazepin-5-yl]-5-cyano-2-[[(2R,8S)-2-fluoro-1,2,3,5,6,7-hexahydropyrrolizin-8-yl]methoxy]pyrimidin-4-yl]spiro[5,6-dihydrocyclopenta[b]thiophene-4,3′-azetidine]-3-carbonitrile]
IC50 [1]: < 10 nM
IC50 [2]: 100 to 1000 nM

N#Cc1c(N2C[C@H]3CC[C@@H](C2)N3)nc(OCC2(CN3CCOCC3)CC2)nc1N1CC2(C=CCc3sc(N)c(C#N)c32)C1 [Compound 86, 2-amino-1′-[5-cyano-2-[[1-(morpholinomethyl)cyclopropyl]methoxy]-6-[(1R,5S)-3,8-diazabicyclo[3.2.1]octan-3-yl]pyrimidin-4-yl]spiro[7H-benzothiophene-4,3′-azetidine]-3-carbonitrile]
IC50 [1]: < 10 nM
IC50 [2]: 10 to 100 nM

CN(C)CC1(COc2nc(N3CCCn4nc(C(=O)N(C)C)c(Cl)c4C3)c(C#N)c(N3CC4(CCc5sc(N)c(C#N)c54)C3)n2)CC1(F)F (centres unmarked) [Compound 87, 5-[6-(2-amino-3-cyano-spiro[5,6-dihydrocyclopenta[b]thiophene-4,3′-azetidine]-1′-yl)-5-cyano-2-[[1-[(dimethylamino)methyl]-2,2-difluoro-cyclopropyl]methoxy]pyrimidin-4-yl]-3-chloro-N,N-dimethyl-4,6,7,8-tetrahydropyrazolo[1,5-a][1,4]diazepine-2-carboxamide]
IC50 [1]: < 10 nM
IC50 [2]: 10 to 100 nM

C[C@H](Oc1nc(N2C[C@H]3CC[C@@H](C2)N3)c(C#N)c(N2CC3(CCc4sc(N)c(C#N)c43)C2)n1)[C@@H]1CCCN1C [Compound 88, 2-amino-1′-[5-cyano-6-[(1R,5S)-3,8-diazabicyclo[3.2.1]octan-3-yl]-2-[(1S)-1-[(2S)-1-methylpyrrolidin-2-yl]ethoxy]pyrimidin-4-yl]spiro[5,6-dihydrocyclopenta[b]thiophene-4,3′-azetidine]-3-carbonitrile]
IC50 [1]: 10 to 100 nM
IC50 [2]: 1000 to 10000 nM

N#Cc1c(N2C[C@H]3CC[C@@H](C2)N3)nc(OCC2(CN3C[C@@H]4C[C@H]3CO4)CC2)nc1N1CC2(CCc3sc(N)c(C#N)c32)C1 [Compound 89, 2-amino-1′-[5-cyano-6-[(1R,5S)-3,8-diazabicyclo[3.2.1]octan-3-yl]-2-[[1-[[(1S,4S)-2-oxa-5-azabicyclo[2.2.1]heptan-5-yl]methyl]cyclopropyl]methoxy]pyrimidin-4-yl]spiro[5,6-dihydrocyclopenta[b]thiophene-4,3′-azetidine]-3-carbonitrile]
IC50 [1]: < 10 nM
IC50 [2]: 10 to 100 nM

CN(C)C(=O)c1nn2c(c1Cl)CN(c1nc(OC[C@@]34CCCN3C[C@H](F)C4)nc(N3CC4(CCc5sc(N)c(C#N)c54)C3)c1C#N)CC(F)(F)C2 [Compound 91, 5-[6-(2-amino-3-cyano-spiro[5,6-dihydrocyclopenta[b]thiophene-4,3′-azetidine]-1′-yl)-5-cyano-2-[[(2R,8S)-2-fluoro-1,2,3,5,6,7-hexahydropyrrolizin-8-yl]methoxy]pyrimidin-4-yl]-3-chloro-7,7-difluoro-N,N-dimethyl-6,8-dihydro-4H-pyrazolo[1,5-a][1,4]diazepine-2-carboxamide]
IC50 [1]: < 10 nM
IC50 [2]: 10 to 100 nM
